From article PMC9106035, “Synthesis, X-ray Structure and Biological Studies of New Self-Assembled Cu(II) Complexes Derived from s-Triazine Schiff Base Ligand” (Molecules, 2022)

Tests used:
[1] = DPPH radical scavenging assay; format: biochemical
Experimental: The studied Cu(II) complexes and the free ligands were assessed for their antioxidant activity levels using an α,α-diphenyl-β-picrylhydrazyl (DPPH) scavenging assay, and the results are given in Table 7. […] The results indicated better antioxidant activity for DMAT than for DMOHT, indicating the effect of the substituent at the phenyl moiety on the antioxidant activity level of the free ligand. […] On the other hand, the Cu(II) complexes have improved levels of antioxidant activity compared to the free ligands.
Method S3 DPPH Radical Scavenging Activity:
Freshly prepared (0.004 %w/v) methanol solution of 2,2-diphenyl-1-pi crylhydrazyl (DPPH) radical was prepared and stored at 10 °C in dark place. A methanolic solution of the test compound was prepared using the same procedure. A 40 uL aliquot of the methanol solution was added to 3mL of DPPH solution. Absorbance measurements were recorded immediately with a UV-visible spectrophotometer (Milton Roy, Spectronic 1201). The decrease in absorbance at 515 nm was determined continuously, with data being recorded at 1 min intervals until the absorbance stabilized (16 min). The absorbance of the DPPH radical without antioxidant (control) and the reference compound ascorbic acid were also measured.
All the determinations were performed in three replicates and averaged. The percentage inhibition (PI) of the DPPH radical was calculated according to the […]
PI = [{(AC- AT)/ AC} x 100] (1)
Where AC = Absorbance of the control at t = 0 min and AT = absorbance of the sample+DPPH at t = 16 min. The 50% inhibitory concentration (IC50), the concentration required t o inhibit DPPH radical by 50%, was estimated from graphic plots of the dose respons e curve.

[2] = tested on: lung carcinoma A-549 cell line; assay: Anticancer activity, MTT viability assay; format: cell-based; conditions: for Inhibitory % / Viability %: A-549, Table S9; for SI = CC50/IC50: CC50 (MRC-5) / IC50 (A-549)
Experimental: The studied compounds were examined for their anticancer activity against the lung carcinoma A-549 cell line.
(§1) Method S4 Evaluation of Cytotoxic activity
(§2) The cells were propagated in Dulbecco’s modified Eagle’s medium (DMEM) supplemented with 10% heat-inactivated fetal bovine serum, 1 % L-glutamine, HEPES buffer and 50µg/mL Gentamycin. All cells were maintained at 37 °C in a humidified atmosphere with 5% CO2 and were subcultured tw o times a week.
(§3) Cytotoxicity evaluation using viability assay
(§4) For cytotoxicity assay, the cells were seeded in 96-well plate at a cell concentration of 1×10^4 cells per well in 100µl of growth medium. Fresh medium containing different concentrations of the test sample was added after 24 h of seeding. Serial two-fold dilutions of the tested chemical compound were added to confluent cell monolayers dispensed into 96-well, flat-bottomed microtiter plates (Falcon, NJ, USA) using a multichannel pipette. The microtiter plates were incubated at 37 °C in a humidified incubator with 5% CO2 for a period of 24 h. Three wells were used for each concentration of the test sample. Control cells were incubated without test sample and with or without DMSO. The little percentage of DMSO present in the […]
(§5) cells for at 37°C, for 24 h, the viabl e cells yield was determined by the MTT test.
(§6) Briefly, the media was removed from the 96 well plate and replaced with 100 µL of fresh culture DMEM m edium without phenol red then 10 µL of the 12 mM MTT stock solution (5 mg of MTT in 1 mL of PBS) to each well including the untreated controls. The 96 well plates were then incubated at 37°C and 5% CO2 for 4 hours. An 85 µL aliquot of the media was removed from t he wells, and 50 µL of DMSO was added to each well and mixed thoroughly with the pipette and incubated at 37°C for 10 min. Then, the optical density was measured at 590 nm with the microplate reader (SunRise, TECAN, Inc, USA) to determine the number of viable cells and the percentage of viability was calculat ed as [(ODt/ODc)]x100% where ODt i s the mean optical density of wells treated with the tested s ample and ODc is the mean optical density of untreated cells. The relation between surviving cells and drug concentration is plotted to get the survival curve of each tumor cell line after treatment with the specified compound. The 50% inhibitory concentration (IC50), the concentration required to cause t oxic effects in 50% of intact cells, was estimated from graphic plots of the dose response curve for each conc. using Graphpad Prism software (San Diego, […]

[3] = tested on: normal human lung fibroblast MRC-5 cells; assay: Cytotoxic activity on normal cells, MTT viability assay; format: cell-based; conditions: for Inhibitory % / Viability %: MRC-5, Table S14
Experimental: In this regard, the selectivity index (SI) was calculated as the ratio of cytotoxic effect on the normal cell line to the cytotoxic effect on the cancer cell line.
as §1, §2, §3, §4, §5, §6

CC(=NNc1nc(N2CCOCC2)nc(N2CCOCC2)n1)c1ccccc1[O-].O=[N+]([O-])[O-].[Cu+2] [Complex 3, [Cu(DMOT)(NO3)]]
DPPH Scavenging % ([1]; Conc. 2.5 μg/mL): 11.46% | DPPH Scavenging % ([1]; Conc. 5 μg/mL): 18.73% | DPPH Scavenging % ([1]; Conc. 10 μg/mL): 32.95% | DPPH Scavenging % ([1]; Conc. 20 μg/mL): 51.32% | DPPH Scavenging % ([1]; Conc. 40 μg/mL): 68.9% | DPPH Scavenging % ([1]; Conc. 80 μg/mL): 81.47% | DPPH Scavenging % ([1]; Conc. 160 μg/mL): 85.92% | DPPH Scavenging % ([1]; Conc. 320 μg/mL): 90.81% | DPPH Scavenging % ([1]; Conc. 640 μg/mL): 94.29% | DPPH Scavenging % ([1]; Conc. 1280 μg/mL): 95.76% | IC50 (DPPH scavenging) ([1]; antioxidant activity): 19.31 ± 0.73 µg/mL | Inhibitory % ([2]; sample conc. 1.9 µM): 0% | Viability % ([2]; sample conc. 1.9 µM): 100% | Inhibitory % ([2]; sample conc. 3.8 µM): 1.37% | Viability % ([2]; sample conc. 3.8 µM): 98.63% | Inhibitory % ([2]; sample conc. 7.4 µM): 7.25% | Viability % ([2]; sample conc. 7.4 µM): 92.75% | Inhibitory % ([2]; sample conc. 14.9 µM): 19.54% | Viability % ([2]; sample conc. 14.9 µM): 80.46% | Inhibitory % ([2]; sample conc. 29.8 µM): 32.81% | Viability % ([2]; sample conc. 29.8 µM): 67.19% | Inhibitory % ([2]; sample conc. 59.6 µM): 50.72% | Viability % ([2]; sample conc. 59.6 µM): 49.28% | Inhibitory % ([2]; sample conc. 119.3 µM): 63.38% | Viability % ([2]; sample conc. 119.3 µM): 36.62% | Inhibitory % ([2]; sample conc. 238.6 µM): 76.06% | Viability % ([2]; sample conc. 238.6 µM): 23.94% | Inhibitory % ([2]; sample conc. 477.1 µM): 88.72% | Viability % ([2]; sample conc. 477.1 µM): 11.28% | Inhibitory % ([2]; sample conc. 954.2 µM): 95.13% | Viability % ([2]; sample conc. 954.2 µM): 4.87% | IC50 ([2]; A-549 cells, 24 h, MTT): 58.3 µM | SI = CC50/IC50 [2]: 2.96 | SI = CC50/IC50 ([2]; listed as 3): 2.97 | Inhibitory % ([3]; sample conc. 1.9 µM): 0% | Viability % ([3]; sample conc. 1.9 µM): 100% | Inhibitory % ([3]; sample conc. 3.8 µM): 0% | Viability % ([3]; sample conc. 3.8 µM): 100% | Inhibitory % ([3]; sample conc. 7.4 µM): 0% | Viability % ([3]; sample conc. 7.4 µM): 100% | Inhibitory % ([3]; sample conc. 14.9 µM): 1.37% | Viability % ([3]; sample conc. 14.9 µM): 98.63% | Inhibitory % ([3]; sample conc. 29.8 µM): 10.83% | Viability % ([3]; sample conc. 29.8 µM): 89.17% | Inhibitory % ([3]; sample conc. 59.6 µM): 23.08% | Viability % ([3]; sample conc. 59.6 µM): 76.92% | Inhibitory % ([3]; sample conc. 119.3 µM): 42.86% | Viability % ([3]; sample conc. 119.3 µM): 57.14% | Inhibitory % ([3]; sample conc. 238.6 µM): 58.72% | Viability % ([3]; sample conc. 238.6 µM): 41.28% | Inhibitory % ([3]; sample conc. 477.1 µM): 79.35% | Viability % ([3]; sample conc. 477.1 µM): 20.65% | Inhibitory % ([3]; sample conc. 954.2 µM): 92.46% | Viability % ([3]; sample conc. 954.2 µM): 7.54% | CC50 ([3]; MRC-5 cells, 24 h, MTT): 173 µM
